# “And” between values parts separate entries of the source, which are not always exact repeats. Equal entries are not always repeated.
# Assays:
# Details in all cases: incubation time: 72 h
# [1] = system: CAL-120; experiment: normalised viability (% of control), CellTiter-Blue; higher = more viable cells (about 100 = DMSO control)
# Method: (§1)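 DSRT, CellTiter-Blue viability, 72 h incubation. Signal is normalised to DMSO and benzethonium chloride controls. Value is the normalised response at dose 3.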
# [2] = system: CAL-148; experiment: as above
# Method: as §1
# [3] = system: CAL-51; experiment: as above
# Method: as §1
# [4] = system: CAL-85-1; experiment: as above
# Method: as §1
# [5] = system: HCC1599; experiment: as above
# Method: as §1
# [6] = system: HCC1937; experiment: as above
# Method: as §1
# [7] = system: HDQ-P1; experiment: as above
# Method: as §1
# [8] = system: Hs578T; experiment: as above
# Method: as §1
# [9] = system: MDA-MB-231; experiment: as above
# Method: as §1
# [10] = system: MDA-MB-436; experiment: as above
# Method: as §1
# [11] = system: MDA-MB-468; experiment: as above
# Method: as §1
# [12] = system: SK-BR-3; experiment: as above
# Method: as §1
# [13] = system: BT-474; experiment: drug sensitivity score (DSS), CellTiter-Blue viability (DSS (AUC-based score)); higher = stronger viability inhibition; extreme values may be limits of the assay
# Method: (§2)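 DSRT with the CellTiter-Blue (resazurin reduction) viability readout, fluorescence 560/590 nm, 72 h incubation. Plates were normalised to DMSO and benzethonium chloride controls. DSS is computed from the area under the fitted dose-response curve (5 or 9 concentrations).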
# [14] = system: BT-549; experiment: as above
# Method: as §2
# [15] = system: CAL-148; experiment: as above
# Method: as §2
# [16] = system: CAL-51; experiment: as above
# Method: as §2
# [17] = system: CAL-85-1; experiment: as above
# Method: as §2
# [18] = system: DU-4475; experiment: as above
# Method: as §2
# [19] = system: HCC1143; experiment: as above
# Method: as §2
# [20] = system: HCC1599; experiment: as above
# Method: as §2
# [21] = system: HDQ-P1; experiment: as above
# Method: as §2
# [22] = system: Hs578T; experiment: as above
# Method: as §2
# [23] = system: MDA-MB-231; experiment: as above
# Method: as §2
# [24] = system: MDA-MB-436; experiment: as above
# Method: as §2
# [25] = system: MDA-MB-453; experiment: as above
# Method: as §2
# [26] = system: MDA-MB-468; experiment: as above
# Method: as §2
# [27] = system: MFM-223; experiment: as above
# Method: as §2
# [28] = system: SK-BR-3; experiment: as above
# Method: as §2
Structure (SMILES),normalised viability ([1]; 10 nM),normalised viability ([2]; 1 nM),normalised viability ([3]; 1 nM),normalised viability ([4]; 1 nM),drug sensitivity score [13],drug sensitivity score [14],drug sensitivity score [15],drug sensitivity score [16],drug sensitivity score [17],drug sensitivity score [18],drug sensitivity score [19],drug sensitivity score [20],drug sensitivity score [21],drug sensitivity score [22],drug sensitivity score [23],drug sensitivity score [24],drug sensitivity score [25],drug sensitivity score [26],drug sensitivity score [27],drug sensitivity score [28],further results
COc1cc(CCc2cc(NC(=O)c3ccc(N4CC(C)NC(C)C4)cc3)n[nH]2)cc(OC)c1 (centres undefined) [AZD4547],94%,97.5%,103%,101%,0,0,2.37,2.97,3.12,3.06,0,6.62,0,0,0,0,5.67,0,15.1,0,normalised viability ([5]; 10 nM): 83.7%; normalised viability ([6]; 10 nM): 91.8%; normalised viability ([7]; 1 nM): 112%; normalised viability ([8]; 10 nM): 92.7%; normalised viability ([9]; 10 nM): 124%; normalised viability ([10]; 10 nM): 102%; normalised viability ([11]; 10 nM): 108%; normalised viability ([12]; 10 nM): 97.5%
CCC/C=C/C=C/C(=O)O[C@H]1/C(=C/C(=O)OC)C[C@H]2C[C@H]([C@@H](C)O)OC(=O)C[C@H](O)C[C@@H]3C[C@H](OC(C)=O)C(C)(C)[C@](O)(C[C@@H]4C/C(=C/C(=O)OC)C[C@H](/C=C/C(C)(C)[C@]1(O)O2)O4)O3 [Bryostatin 1],,,,,0,0,16.1,0,7.23,0,6.66,16.1,0,0,0,0,0,0,0,4.97,normalised viability ([1]; 1 nM): 85.4%; normalised viability ([2]; 0.1 nM): 90.7%; normalised viability ([3]; 0.1 nM): 102%; normalised viability ([4]; 0.1 nM): 124%; normalised viability ([5]; 1 nM): 110%; normalised viability ([6]; 100 nM): 103%; normalised viability ([7]; 0.1 nM): 106%; normalised viability ([8]; 1 nM): 63%; normalised viability ([9]; 100 nM): 97.2%; normalised viability ([10]; 1 nM): 126%; normalised viability ([11]; 100 nM): 101%; normalised viability ([12]; 100 nM): 84.1%
Cc1nc(Nc2ncc(C(=O)Nc3c(C)cccc3Cl)s2)cc(N2CCN(CCO)CC2)n1 [Dasatinib],93.2% and 80.5%,98.7% and 85.7%,100% and 106%,100% and 99.7%,0,8.07 and 9.99,0,12.4 and 11.1,8.12 and 9,0,6.83 and 7.93,0,19.3 and 21.9,10.6 and 12.3,9.89 and 15.2,7.53 and 9.46,0,0,2.5 and 1.76,0,normalised viability ([5]; 10 nM): 105% and 123%; normalised viability ([6]; 10 nM): 87.7% and 94.3%; normalised viability ([7]; 1 nM): 92.8% and 87.5%; normalised viability ([8]; 10 nM): 77.6% and 80.5%; normalised viability ([10]; 10 nM): 102% and 88.7%; normalised viability ([12]; 10 nM): 89.4% and 82.9%
COc1nc(N)nc2c1ncn2[C@@H]1O[C@H](CO)[C@@H](O)[C@@H]1O [Nelarabine],,,,,0,0,0,0,0,0,0,0,0,0,0,0,0,0,0,0,normalised viability ([1]; 100 nM): 112% and 101%; normalised viability ([2]; 10 nM): 104% and 85.5%; normalised viability ([3]; 10 nM): 102% and 103%; normalised viability ([4]; 10 nM): 94.4% and 97.7%; normalised viability ([5]; 100 nM): 98.1% and 113%; normalised viability ([6]; 100 nM): 93.1% and 85.6%; normalised viability ([7]; 10 nM): 82.8% and 82.6%; normalised viability ([8]; 100 nM): 75.9% and 85.7%; normalised viability ([9]; 100 nM): 92.8% and 89.7%; normalised viability ([10]; 100 nM): 90.6% and 83.6%; normalised viability ([11]; 100 nM): 104% and 97.9%
CNC(=O)c1cc(Oc2ccc(NC(=O)Nc3ccc(Cl)c(C(F)(F)F)c3)cc2)ccn1 [Sorafenib],102% and 96%,102% and 90%,114% and 99%,96.3% and 109%,0,,0,0,,0,0,0,0,0,0,0,0,0,,0,normalised viability ([5]; 10 nM): 113% and 129%; normalised viability ([6]; 10 nM): 83.9% and 84.5%; normalised viability ([7]; 1 nM): 105% and 91.4%; normalised viability ([8]; 10 nM): 90% and 86.3%; normalised viability ([10]; 10 nM): 110% and 113%; normalised viability ([11]; 10 nM): 114% and 97.8%
CCN(CC)CCNC(=O)c1c(C)[nH]c(/C=C2\C(=O)Nc3ccc(F)cc32)c1C [Sunitinib],91.8% and 108%,96.4% and 97.8%,110% and 90.5%,95.3% and 104%,0,0,0,0,0,0,0,0,,0,0,0,0,0,0,0,normalised viability ([5]; 10 nM): 125% and 105%; normalised viability ([6]; 10 nM): 98.6% and 91%; normalised viability ([7]; 1 nM): 103% and 99.8%; normalised viability ([8]; 10 nM): 96.2% and 90.4%; normalised viability ([9]; 10 nM): 84.8% and 87.2%; normalised viability ([10]; 10 nM): 102% and 107%; normalised viability ([11]; 10 nM): 100% and 107%; normalised viability ([12]; 10 nM): 85.7% and 80.3%

# Source: the supplement of paper PMC4862054
